Test results taken from ChEMBL document CHEMBL6078686, “Synthesis of 1-Hydroxy(and 1-Alkoxy, 1-Acyloxy)-1H-indoles and evaluations of their suppressive activities against tumor growth through inhibiting lactate dehydrogenase A” (Eur J Med Chem, 2025).
Active and inactive are the calls of the source. The calls are words filed in the database; no cut-off is given here.

What was measured:
[1] = Cytotoxicity against mouse Hepa1-6 cells assessed as inhibition of cell growth measured after 48 hrs incubation by MTT assay; type: toxicity, cell-based, Hepa 1-6
[2] = target: T1, L-lactate dehydrogenase A chain (Homo sapiens, UniProt P00338); assay: Non-competitive inhibition of human recombinant LDHA assessed as ratio of Km/Vmax in presence of pyruvate by measuring NADH fluorescence at 160 nM by Lineweaver-Burk plot analysis
[3] = Cytotoxicity against human T HESCs cells assessed as inhibition of cell growth measured after 48 hrs incubation by MTT assay; type: toxicity, cell-based
[4] = Cytotoxicity against mouse AML12 cells assessed as inhibition of cell growth measured after 48 hrs incubation by MTT assay; type: toxicity, cell-based
[5] = target: T1, L-lactate dehydrogenase A chain; assay: Non-competitive inhibition of human recombinant LDHA assessed as ratio of Km/Vmax in presence of pyruvate by measuring NADH fluorescence at 40 nM by Lineweaver-Burk plot analysis
A549 = assay: Cytotoxicity against human A549 cells assessed as inhibition of cell growth measured after 48 hrs incubation by MTT assay; type: functional
U-87 MG = assay: Cytotoxicity against human U87 cells assessed as inhibition of cell growth measured after 48 hrs incubation by MTT assay; type: functional, U-87MG ATCC
MCF7 = assay: Cytotoxicity against human MCF7 cells assessed as inhibition of cell growth measured after 48 hrs incubation by MTT assay; type: functional
[6] = target: T1, L-lactate dehydrogenase A chain; assay: Inhibition of human recombinant LDHA assessed as conversion of NADH […] at by spectrofluorometry
PANC-1 = assay: Cytotoxicity against human PANC-1 cells assessed as inhibition of cell growth measured after 48 hrs incubation by MTT assay; type: functional
[7] = target: T1, L-lactate dehydrogenase A chain; assay: Inhibition of intracellular LDHA activity in human DLD-1 cell lysate assessed as conversion of NADH […] by spectrofluorometry; type: subcellular
HeLa = assay: Cytotoxicity against human HeLa cells assessed as inhibition of cell growth measured after 48 hrs incubation by MTT assay; type: functional
DLD-1 [8] = assay: Cytotoxicity against human DLD-1 cells assessed as inhibition of cell growth measured after 48 hrs incubation by MTT assay; type: functional
[9] = tested on: COC(=O)c1c(COCCc2ccccc2)c2c(Br)cccc2n1OC; assay: Non-competitive inhibition of human recombinant LDHA assessed as Vmax in presence of pyruvate by measuring NADH fluorescence at 160 nM by Lineweaver-Burk plot analysis
[10] = tested on: CCCCCCOCc1c(C(=O)OC)n(O)c2cccc(Br)c12; assay: Non-competitive inhibition of human recombinant LDHA assessed as Vmax in presence of pyruvate by measuring NADH fluorescence at 25 nM by Lineweaver-Burk plot analysis
[11] = tested on: COC(=O)c1c(COCCc2ccccc2)c2c(Br)cccc2n1OC; assay: Non-competitive inhibition of human recombinant LDHA assessed as Vmax in presence of pyruvate by measuring NADH fluorescence at 40 nM by Lineweaver-Burk plot analysis
[12] = tested on: CCCCCCOCc1c(C(=O)OC)n(O)c2cccc(Br)c12; assay: Non-competitive inhibition of human recombinant LDHA assessed as Vmax in presence of pyruvate by measuring NADH fluorescence at 100 nM by Lineweaver-Burk plot analysis
[13] = tested on: COC(=O)c1c(COCCc2ccccc2)c2c(Br)cccc2n1OC; assay: Non-competitive inhibition of human recombinant LDHA assessed as Km in presence of pyruvate by measuring NADH fluorescence at 40 nM by Michaelis-Menten analysis
[14] = tested on: CCCCCCOCc1c(C(=O)OC)n(O)c2cccc(Br)c12; assay: Non-competitive inhibition of human recombinant LDHA assessed as Km in presence of pyruvate by measuring NADH fluorescence at 100 nM by Michaelis-Menten analysis
[15] = tested on: COC(=O)c1c(COCCc2ccccc2)c2c(Br)cccc2n1OC; assay: Non-competitive inhibition of human recombinant LDHA assessed as Km in presence of pyruvate by measuring NADH fluorescence at 160 nM by Michaelis-Menten analysis
[16] = tested on: CCCCCCOCc1c(C(=O)OC)n(O)c2cccc(Br)c12; assay: Non-competitive inhibition of human recombinant LDHA assessed as Km in presence of pyruvate by measuring NADH fluorescence at 25 nM by Michaelis-Menten analysis
DLD-1 [17] = assay: In vivo tumor suppressor activity against human DLD-1 cells subcutaneously implemented in male athymic mouse model assessed as reduction in tumor weight at 5 to 25 mg/kg abdominally injected daily for 2 weeks after 15 days of tumor injection measured after 2 weeks; type: functional, organism-based; settings: dose 5-25 mg/kg
[18] = target: T1, L-lactate dehydrogenase A chain; assay: Non-competitive inhibition of human recombinant LDHA assessed as ratio of Km/Vmax in presence of pyruvate by measuring NADH fluorescence at 25 nM by Lineweaver-Burk plot analysis
[19] = Toxicity in male athymic mouse subcutaneously inoculated with human DLD-1 cells assessed as injury/inflammation in kidney at 5 to 25 mg/kg abdominally injected daily for 2 weeks after 15 days of tumor injection measured after 2 weeks; type: organism-based; settings: in vivo, 336 h, dose 5-25 mg/kg
DLD-1 [20] = assay: Induction of apoptosis in human DLD-1 cells assessed as caspase 9 at 20 to 40 uM measured after 48 hrs by Western blot analysis; type: functional, cell-based; settings: dose 20-40 µM
DLD-1 [21] = assay: Induction of apoptosis in human DLD-1 cells assessed as caspase 3 at 20 to 40 uM measured after 48 hrs by Western blot analysis; type: functional, cell-based; settings: dose 20-40 µM
[22] = Toxicity in male athymic mouse subcutaneously inoculated with human DLD-1 cells assessed as weight loss at 5 to 25 mg/kg abdominally injected daily for 2 weeks after 15 days of tumor injection measured after 2 weeks; type: organism-based; settings: in vivo, 336 h, dose 5-25 mg/kg
DLD-1 [23] = assay: In vivo tumor suppressor activity against human DLD-1 cells subcutaneously implemented in male athymic mouse model assessed as reduction in tumor volume at 5 to 25 mg/kg abdominally injected daily for 2 weeks after 15 days of tumor injection measured after 2 weeks; type: functional, organism-based; settings: dose 5-25 mg/kg
DLD-1 [24] = assay: In vivo tumor suppressor activity against human DLD-1 cells subcutaneously implemented in male athymic mouse model assessed as caspase 3 activation in tumor tissue at 25 mg/kg abdominally injected daily for 2 weeks after 15 days of tumor injection measured after 2 weeks; type: functional, organism-based
DLD-1 [25] = assay: Induction of apoptosis in human DLD-1 cells assessed as PARP at 20 to 40 uM measured after 48 hrs by Western blot analysis; type: functional, cell-based; settings: dose 20-40 µM
[26] = target: T1, L-lactate dehydrogenase A chain; assay: Non-competitive inhibition of human recombinant LDHA assessed as ratio of Km/Vmax in presence of pyruvate by measuring NADH fluorescence at 100 nM by Lineweaver-Burk plot analysis
[27] = Toxicity in male athymic mouse subcutaneously inoculated with human DLD-1 cells assessed as injury/inflammation in liver at 5 to 25 mg/kg abdominally injected daily for 2 weeks after 15 days of tumor injection measured after 2 weeks; type: organism-based; settings: in vivo, 336 h, dose 5-25 mg/kg

IC50 [6] [nM]	inhibition [6]	inhibition [7]	Compound	GI50 at 48 h [1] [µM]	GI50 at 48 h [3] [µM]	GI50 at 48 h [4] [µM]	GI50 (A549) [µM]	GI50 (U-87 MG) [µM]	GI50 (MCF7) [µM]	GI50 (PANC-1) [µM]	GI50 (HeLa) [µM]	GI50 (DLD-1 [8]) [µM]	other results
124	Dose-dependent-effect	inactive	COC(=O)c1c(COCCc2ccccc2)c2c(Br)cccc2n1OC	56.2	> 100	85.2	> 100	66.7	> 100	> 100	83.5	> 100	Vmax/Km [2]: 0.038; Vmax/Km [5]: 0.029
			L-lactate dehydrogenase A chain (Homo sapiens) (from UniProt P00338)										Vmax [9]: 5.01; Vmax [10]: 4.54; Vmax [11]: 5.84; Vmax [12]: 3.6; Km [13]: 172 µM; Km [14]: 170 µM; Km [15]: 189 µM; Km [16]: 254 µM
			COC(=O)c1cc2c(C(F)(F)F)cc(-c3ccccc3)cc2n1O									106	
25	Dose-dependent-effect	Dose-dependent-effect	CCCCCCOCc1c(C(=O)OC)n(O)c2cccc(Br)c12	49.6	> 100	> 100	45.6	60.9	31.7	31.4	39.6	27	Activity (DLD-1 [17]): Active; Vmax/Km [18]: 0.056; Activity [19]: Non-toxic; Activity (DLD-1 [20]): Active; Activity (DLD-1 [21]): Active; Activity [22]: Non-toxic; Activity (DLD-1 [23]): Active; Activity (DLD-1 [24]): Active; Activity (DLD-1 [25]): Active; Vmax/Km [26]: 0.047; IC50 [7]: 11.6 µM; Activity [27]: Non-toxic
